Results as given in patent US20090280067A1, “CRYSTAL FORM OF 8-HYDROXY-5-[(1R)-1-HYDROXY-2-[[(1R)-2-(4-METHOXYPHENYL)-1-METHYLETHYL]AMINO]ETHYL]-2(1H)-QUINOLINONE MONOHYDROCHLORIDE” (Chiesi Farmaceutici S.p.A., priority 2008, published 2009).

Experiment: Stability studies: storage at room temperature under different relative humidity conditions, checked by XRPD pattern
Type: physicochemical
Conditions: 25° C., 40%, 60%, 80%, 30%, 40% RH, 1 week each
Protocol: The XRPD analyses were carried out on a PANanalytical X'pert Pro X-ray powder diffractometer using Cu Kα radiation. The instrument was equipped with a X'Celerator detector. A theta-two theta continuous scan from 2.5 degrees 2 theta to 40 degrees 2 theta was used. Each sample is prepared for analysis by placing it in a quartz sample holder. The XPRD patterns are reported in terms of degrees 2 theta (°2θ, accuracy ±0.1°), diffraction peak intensity (height, [cts]), full width at half maximum (FWHM, [°2θ]), interatomic spacing in angstroms (d-spacing, [Å]), and relative intensities (%). The relative intensity is recorded as the ratio of the peak intensity to that of the most intense peak.
In order to check its thermodynamic stability, the CHF 4226 crystal form E was stored at room temperature under different relative humidity (RH) conditions: • 40% RH. and 25° C. for 1 week • 60% RH. and 25° C. for 1 week • 80% RH and 25° C. for 1 week • 60% RH and 25° C. for 1 week • 40% RH and 25° C. for 1 week • 30% RH and 25° C. for 1 week • 40% RH and 25° C. for 1 week. The thermodynamic stability of all the samples was checked by recording their XPRD pattern.

Structure (SMILES): COc1ccc(C[C@@H](C)NC[C@H](O)c2ccc(O)c3[nH]c(=O)ccc23)cc1.Cl [CHF 4226 crystal form E, 8-hydroxy-5-[(1R)-1-hydroxy-2-[[(1R)-2-(4-methoxyphenyl)-1-methylethyl]amino]ethyl]-2(1H)-quinolinone monohydrochloride]
- thermodynamic stability (XPRD pattern) after storage: stable features under all stability screening conditions
